Measurements published in patent US7935680B2, “Methods for modulating the axonal growth of central nervous system neurons” (Children's Medical Center Corporation, priority 1997, dated 2011).
“Also recorded” adds a separate entry of the source.

B1: CNTF: Ciliary neurotrophic factor (protein, UniProt P26441 1-200, looked up)
Ciliary neurotrophic factor: MAFTEHSPLTPHRRDLCSRSIWLARKIRSDLTALTESYVKHQGLNKNINLDSADGMPVASTDQWSELTEAERLQENLQAYRTFHVLLARLLEDQQVHFTPTEGDFHQAIHTLLLQVAAFAYQIEELMILLEYKIPRNEADGMPINVGDGGLFEKKLWGLKVLQELSQWTVRSIHDLRFISSHQTGIPARGSHYIANNKKM

Key:
Type in all cases: cell-based
[1] = test system: rat retinal ganglion cells; assay: Axonal outgrowth from purified rat retinal ganglion cells; settings: rat RGCs
Procedure: Goldfish (Comet Variety, Mt. Parnell Fisheries, Mt. Parnell Pa.), 6-10 cm in length, were dark-adapted and their retinas dissected. Retinas were incubated with papain (20 μg/ml), activated with cysteine (2.8 mM) for 30 minutes at room temperature, then dissociated by gentle trituration. Repeated cycles of trituration and sedimentation yielded cultures nearly homogeneous in ganglion cells, which are readily identified by their oval shape, phase-bright appearance, size (diameter 15 μm), and extension of only 1 or 2 neurites of uniform caliber; these criteria have been verified by retrograde labeling (see Schwartz & Agranoff, Brain Res. 206: 331-343, 1981 and Schwalb et al., J. Neuroscience 15: 5514-5625, 1995, the contents of which are incorporated herein by reference). Low density cultures were achieved by plating c. 5×10^3 cells/well into poly L-lysine coated, 24-well culture dishes (Costar, Cambridge, Mass.). Cells were maintained at 21° C. in serum free, defined media containing insulin, selenium, transferrin, bovine serum albumin, catalase, superoxide dismutase, hormones, and vitamins in Eagle's L-15 media as described in Schwalb et al., 1995, the contents of which are incorporated herein by reference). Dissociated cultures of purified rat retinal ganglion cells were prepared by immunopanning as described in Barres et al., Neuron, 1: 791-803, 1988, the contents of which are incorporated herein by reference). In brief, retinas from postnatal day 8 Sparague-Dawley rats were dissociated using papain activated with cysteine. Macrophages were removed by incubation with an anti-rat macrophage antibody (Accurate) followed by immunopanning with an anti-rabbit 1gG antibody. Ganglion cells were isolated by immunopanning with an anti-Thy-1 antibody, then dislodged with trypsin for use in low-density cultures. Rat retinal ganglion cells were maintained at 37° C. in a CO2 incubator using the same medium described above except for the presence of 30 mM bicarbonate.
In a typical experiment, samples were plated in quadruplicate in randomized positions of a 24-well plate and the code was concealed to ensure that growth was evaluated in a blinded fashion. Each experiment contained 4 wells of a negative control (media plus supplements only) and 4 wells of a positive control (a standardized AF-1 sample of known activity). Growth and survival were assessed after 6 days for all ganglion cells in 25 consecutive fields of each well using phase contrast microscopy at 400× magnification (c. 150 ganglion cells counted per well). Extension of a process 5 cell diameters in length was the criterion for growth, since it clearly distinguishes stimulated cells from negative controls (see Schwalb et al., 1995). After the completion of counting, the code was broken, the data tabulated, and means and standard errors were calculated for the 4 replicate wells of each sample using Cricket Graph (CA Associates, Islandia, N.Y.). Data were normalized by subtracting the growth in the negative controls (usually 4-5%) and dividing by the net growth in the positive controls. In the most favorable experiments, more than 50% of retinal ganglion cells (RGCs) exposed to AF-1 extended axons 5 cell diameters in length after 6 days. Group comparisons were based upon pairwise, 2-tailed Student's t-tests. Several independent experiments were performed for most samples, as noted in the figure legends. In some cases, cell viability was assessed with the dye 5,6-carboxyfluorescein diacetate. […]

GAP-43 = GAP-43 immunohistochemistry in goldfish retinal ganglion cells
Procedure: One hallmark of optic nerve regeneration in vivo is the enhanced expression of the membrane phosphoprotein GAP-43. To investigate whether this upregulation is induced by purines, immunohistochemistry was carried out using a polyclonal rabbit antiserum against recombinant […] GAP-43. Recombinant zebrafish GAP-43 was made by transforming E. coli with a cDNA isolated by Dr. Eva Reinhard, University of Basel, Switzerland (see Reinhard et al., Development, 120: 1757-1775, 1994, the contents of which are incorporated herein by reference) subcloned into the prokaryotic expression vector pTrcHisB (Invitrogen). The protein produced was purified by Ni^2+-NTA-affinity chromatography and used to immunize rabbits. […] Inosine produced a 5.5-fold increase in the number of intensely stained cells over L-15, whereas AF-1 produced a 8-fold increase. In all 3 cases, the intensity of GAP-43 immunostaining correlated strongly with axonal length.

[2] = test system: goldfish retinal ganglion cells; assay: Axonal outgrowth from dissociated goldfish retinal ganglion cell cultures; settings: for restoration of AF-1-induced growth in the presence of 10 μM 6-TG: inosine 100 μM
Procedure: Axogenesis factor-1 was obtained essentially as described in Schwalb et al., 1995, and Schwalb et al., Neuroscience, 72: 901-910, 1996, the contents of which are incorporated herein by reference). Optic nerves were dissected, cut into fragments 1 mm in length, and incubated in a ratio of 6 nerves in 3 ml of either L-15 media (Gibco BRL) or phosphate-buffered saline (Gibco BRL). After 3-4 hours, nerve fragments were removed by filtering through a 0.22 μm pore low protein-binding filter (Gelman). A low molecular weight fraction of the conditioned media was prepared by ultrafiltration, first with a molecular weight cut-off of 3 kDa (Amicon Centriprep-3), then with a cut-off of 1 kDa (Filtron). The filtrate was used as a positive control at 20-30% final concentration. […] Goldfish (Comet Variety, Mt. Parnell Fisheries, Mt. Parnell Pa.), 6-10 cm in length, were dark-adapted and their retinas dissected. Retinas were incubated with papain (20 μg/ml), activated with cysteine (2.8 mM) for 30 minutes at room temperature, then dissociated by gentle trituration. […] Neuroscience 15: 5514-5625, 1995, the contents of which are incorporated herein by reference). […] Cells were maintained at 21° C. in serum free, defined media containing insulin, selenium, transferrin, bovine serum albumin, catalase, superoxide dismutase, hormones, and vitamins in Eagle's L-15 media as described in Schwalb et al., 1995, the contents of which are incorporated herein by reference). Dissociated cultures of purified rat retinal ganglion cells were prepared by immunopanning as described in Barres et al., Neuron, 1: 791-803, 1988, the contents of which are incorporated herein by reference). In brief, retinas from postnatal day 8 Sparague-Dawley rats were dissociated using papain activated with cysteine. Macrophages were removed by incubation with an anti-rat macrophage antibody (Accurate) followed by immunopanning with an anti-rabbit 1gG antibody. Ganglion cells were isolated by immunopanning with an anti-Thy-1 antibody, then dislodged with trypsin for use in low-density cultures. Rat retinal ganglion cells were maintained at 37° C. in a CO2 incubator using the same medium described above except for the presence of 30 mM bicarbonate. In a typical experiment, samples were plated in quadruplicate in randomized positions of a 24-well plate and the code was concealed to ensure that growth was evaluated in a blinded fashion. Each experiment contained 4 wells of a negative control (media plus supplements only) and 4 wells of a positive control (a standardized AF-1 sample of known activity). […] After the completion of counting, the code was broken, the data tabulated, and means and standard errors were calculated for the 4 replicate wells of each sample using Cricket Graph (CA Associates, […].). […] Group comparisons were based upon pairwise, 2-tailed Student's t-tests. Several independent experiments were performed for most samples, as noted in the figure legends. […] Cell survival is reported as the number of viable RGCs per high-powered field.

[3] = test system: rat retinal ganglion cells; assay: Cell survival of purified rat retinal ganglion cells; settings: CNTF, rat RGCs
Procedure: Goldfish (Comet Variety, Mt. Parnell Fisheries, Mt. Parnell Pa.), 6-10 cm in length, were dark-adapted and their retinas dissected. Retinas were incubated with papain (20 μg/ml), activated with cysteine (2.8 mM) for 30 minutes at room temperature, then dissociated by gentle trituration. Repeated cycles of trituration and sedimentation yielded cultures nearly homogeneous in ganglion cells, which are readily identified by their oval shape, phase-bright appearance, size (diameter 15 μm), and extension of only 1 or 2 neurites of uniform caliber; these criteria have been verified by retrograde labeling (see Schwartz & Agranoff, Brain Res. 206: 331-343, 1981 and Schwalb et al., J. Neuroscience 15: 5514-5625, 1995, the contents of which are incorporated herein by reference). […]
In a typical experiment, samples were plated in quadruplicate in randomized positions of a 24-well plate and the code was concealed to ensure that growth was evaluated in a blinded fashion. […] Growth and survival were assessed after 6 days for all ganglion cells in 25 consecutive fields of each well using phase contrast microscopy at 400× magnification (c. 150 ganglion cells counted per well). […] After the completion of counting, the code was broken, the data tabulated, and means and standard errors were calculated for the 4 replicate wells of each sample using Cricket Graph (CA Associates, Islandia, N.Y.). […]

Molecule	restoration of CNTF stimulated growth in the presence of 10 μM 6-TG ([1]; inosine 25 μM)	restoration of CNTF-induced outgrowth in the presence of 10 μM 6-TG ([1]; inosine 50 μM)	increase in the number of cells extending axons 5 cell diameters in length ([1]; inosine at 25 or 50 μM) [%]	increase in the number of intensely stained cells over L-15 (GAP-43; GAP-43 immunoreactivity score 2 (intense), 150-200 cells) [fold]	GAP-43 levels relative to L-15 treated controls (GAP-43; immunostaining)	EC50 ([2]; Carassius auratus, 144 h, goldfish RGCs, 6 days, estimated from dose-response curves) [µM]	Emax ([2]; Carassius auratus, normalized to AF-1 positive control, adenosine 50-100 μM, guanosine 100 μM, inosine above 25 or 50 μM, read-out: maximal response relative to the level induced by AF-1) [%]	outgrowth at higher concentrations ([2]; concentrations above those giving the maximal response)	dependence of outgrowth on cell density ([2]; fixed concentration (100 μM), 3-4-fold range of cell densities)	restoration of AF-1-induced growth in the presence of 10 μM 6-TG [2]	restoration of AF-1-induced growth in the presence of 10 μM 6-TG ([2]; listed as Inosine)	combined effect with AF-1 ([2]; inosine and AF-1 at saturating / higher concentrations)	combined effect with AF-1 ([2]; inosine and AF-1 each at EC50 (half-maximal) levels)	outgrowth compared with inosine ([1]; CNTF)	cell survival [3]
OC[C@H]1O[C@@H](n2cnc3c(O)ncnc32)[C@H](O)[C@@H]1O [inosine]	fully restored	restored CNTF-induced outgrowth nearly to its original level	50	5.5	large increase in GAP-43 levels	10 to 15	~60	did not cause growth to decline	growth is not a function of cell density; also recorded: independent of cell density	fully restored the growth induced by AF-1	restored all of the growth induced by AF-1	growth saturates at the level stimulated by high AF-1 levels alone; also recorded: growth reached a plateau level	additive effects		
B1														much larger increase in outgrowth	enhanced cell survival
